Data on 1 compound can be found in patent US12115161B2, “Prophylactic and/or therapeutic agent for inflammatory diseases which contains pyrrolopyrimidine compound as active ingredient” (KEIO UNIVERSITY, priority 2018, dated 2024).

For assay [1], the system named is human monocytic cell line THP-1. As to the kind of experiment: IL-6 production inhibitory effect of BAFF in IFNγ-precultured THP-1 cells (Example 2). The class given is cell-based. The protocol: In 24-well plates (manufactured by Corning Inc.) in a RPMI-1640 culture medium (produced by ATCC) containing 10% fetal bovine serum (produced by JRH Biosciences), 5×10^5 cells of human monocytic leukemia cell line THP-1 (obtained from a bioresource bank, Japanese Collection of Research Bioresource) were seeded per well. IFNγ (interferon γ, produced by BD Pharmingen) was added to a final concentration of 200 ng/mL and cultured in a 5% CO2 environment at 37° C. After four days of culture, the culture broth in each well was removed and the cells were washed twice with the culture medium, followed by addition of the culture medium containing a final concentration of 2 μg/mL of recombinant human soluble BAFF (produced by Chemicon), and respective test compounds were added to a final concentration of 20 μM or 2 μM to continue the culture in the same conditions. After three days of culture, the culture supernatant was collected to determine the IL-6 content in the supernatant by ELISA. For ELISA, mouse anti-human IL-6 antibody (produced by BD Pharmingen), biotin-labeled anti-human IL-6 antibody (produced by BD Pharmingen), and HRP-labeled streptavidin (produced by BD Pharmingen) were used. The test compound groups were used by purchasing from Asinex. In the test system, Compound 27 (BIK-13) in PTL 1 was used as a positive control (compound with inhibitory action on IL-6 production by monocytic cells). BIK-13 was the same as the compound of ADM 12880656 by Asinex Japan Inc.
In the presence of 200 ng/mL recombinant human IFNγ (same as Example 1) (entire culture scale of 24-well culture plates at 2 mL/well), 5×10^5 cells of human monocytic cell line THP-1 (same as Example 1) were cultured using a 10% FBS/RPMI 1640 culture medium in a 5% CO2 environment at 37° C. for four days (96 hours). Four days later, an operation of removing the supernatant, adding a new medium, leaving it still in an incubator, and removing the supernatant was repeated twice. After removing the supernatant, recombinant human BAFF (2 μg/mL) was dissolved together with Compound A (ADM 12880492, Asinex Japan Inc.) or Compound B (ADM 12880696, Asinex Japan Inc.) in a medium and added to the culture wells to be cultured for three days. Three days later, the culture supernatant was collected to determine the IL-6 content in the culture supernatant by IL-6 specific ELISA. As a control, instead of Compound A or Compound B, BIK-13 was used.

The subject of assay [2] is peripheral blood monocytes and B cells from Sjögren syndrome patients. Description: IgG production in coculture of BAFF-stimulated peripheral blood monocytes and B cells (Example 4). The class given is cell-based, human. The protocol:
Monocytes were isolated from Sjögren syndrome patient peripheral blood using CD14 microbeads, and B cells were isolated from the peripheral blood using CD19 microbeads. Using Transwell® culture plates, 2×10^5 monocytes per well were seeded in the upper plate and 1×10^5 B cells in the lower plate to be cultured in the presence of 2 μg/mL recombinant human BAFF (same as Example 2) and Compound A (1 μM and 10 μM) using a 10% FBS/RPMI 1640 culture medium in a 5% CO2 environment at 37° C. for four days (coculture of the peripheral blood monocytes and the B cells via a membrane). Four days later, the supernatant was removed and the culture supernatant was collected to determine the IgG content in the culture supernatant by ELISA. As controls, experiments in the case of not adding Compound A and the case of adding neither Compound A nor BAFF were also performed. Moreover, for comparison with the effects of Compound A, experiments using BIK-13 instead of Compound A were also performed.

For assay [3], the system named is MRL/lpr mice. As to the kind of experiment: Tissue lesion (lymphocytic infiltration, HE staining) in MRL/lpr mice (Example 9). The class given is in vivo. To be noted: 0.04, 0.2, 1 mg/kg for 16 weeks. As to the method:
Present Example was performed simultaneously with Example 6 using MRL/lpr mice. Except for the following exceptions, present Example was performed by the same materials and method as Example 6 above.
After administration in the 16th week, 25-week-old mice were dissected and tissues (lacrimal glands, submandibular glands, and kidneys) were removed. After the removed tissues were rapidly frozen and embedded using O.C.T. compound (Sakura Finetek Japan Co., Ltd.), the frozen tissues were thin sectioned with a cryostat (LEICA CM 1920) and applied on glass slides. After the sections on the glass slides were dried, the tissues were stained by hematoxylin-eosin staining to be observed with a microscope. The hematoxylin-eosin staining was performed in the following procedure: • 1) fixation and washing with an ethanol-formalin-acetic acid fixative; • 2) adding New Hematoxylin solution Type G (Muto Pure Chemicals Co., Ltd.), followed by washing; • 3) adding New Eosin solution Type A (Muto Pure Chemicals Co., Ltd.); • 4) adding 80% ethanol; • 5) adding xylene; and • 6) mounted with Marinol (Muto Pure Chemicals Co., Ltd.) for observation.

On to `Cc1c(C)n(Cc2ccccc2)c2ncnc(OC3CCN(CC(=O)NCC4CC4)CC3)c12` [Compound A, 2-[4-{(7-benzyl-5,6-dimethyl-7H-pyrrolo[2,3-d]pyrimidin-4-yl)oxy}piperidin-1-yl]-N(cyclopropylmethyl)acetamide], for which, in assay [1] (0.04 μM, 0.2 μM and 1 μM together with 2 μg/mL human BAFF, 3 days, ELISA), the “IL-6 production inhibitory effect compared with the control” value is listed as “significant (p<0.001) IL-6 production inhibitory effects”. Besides, the “relative amount of IL-6 production” value in assay [1] (0.04 μM, control (BAFF only) = 100%) turned out to be 25±1.42%. Further, the “IL-6 production inhibitory effect, times stronger than BIK-13” value in assay [1] (THP-1 system of Example 2) was “at least 750 times”. The “IgG antibody production inhibitory effect compared with the control (B+mono+BAFF)” value in assay [2] (1 μM and 10 μM with 2 μg/mL human BAFF, 4 days) is “significant (p<0.01 or p<0.001) IgG antibody production inhibitory effects”. Also, the “cancellation of the IgG antibody production enhancement by BAFF” value in assay [2] (10 μM, compared with adding neither compound nor BAFF) was “completely cancelled and further the IgG antibody production was inhibited below the basal level”. In addition, the “inhibitory effect on IgG antibody production, times stronger than BIK-13” value in assay [2] (coculture system of Example 4) is recorded as “approximately 10 times”. Moreover, in assay [3], the “lymphocytic infiltration areas in kidney tissues compared with saline” value was “reduced”, the “lymphocytic infiltration areas in lacrimal gland tissues compared with saline” value is “clearly reduced” and the “lymphocytic infiltration areas in submandibular gland tissues compared with saline” value is recorded as “reduced”.
